Experimental findings from ChEMBL document CHEMBL1145605, “Novel 2-imidazoles as potent and selective alpha1A adrenoceptor partial agonists” (Bioorg Med Chem Lett, 2008) are described below.

The target of test [1] is T1, Alpha-1A adrenergic receptor (Homo sapiens) (UniProt P35348).
T1 sequence (whole entry): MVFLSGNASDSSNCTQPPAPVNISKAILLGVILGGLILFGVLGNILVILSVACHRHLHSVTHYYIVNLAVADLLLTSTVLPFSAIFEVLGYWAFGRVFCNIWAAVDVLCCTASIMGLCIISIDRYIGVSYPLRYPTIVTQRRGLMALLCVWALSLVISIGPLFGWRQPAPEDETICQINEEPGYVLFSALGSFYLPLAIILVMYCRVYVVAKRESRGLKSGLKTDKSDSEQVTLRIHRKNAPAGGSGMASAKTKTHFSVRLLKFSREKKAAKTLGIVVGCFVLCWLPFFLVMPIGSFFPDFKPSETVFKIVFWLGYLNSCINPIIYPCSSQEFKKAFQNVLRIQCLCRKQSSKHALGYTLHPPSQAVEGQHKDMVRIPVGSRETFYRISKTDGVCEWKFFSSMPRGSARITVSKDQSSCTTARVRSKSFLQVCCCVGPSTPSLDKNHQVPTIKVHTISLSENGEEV
The test can be described thus: Agonist activity at human cloned adrenergic alpha-1A receptor expressed in CHO cells assessed as calcium mobilization by FLIPR relative to phenylephrine. In kind it is functional, cell-based.

Test [2] has as its target T2, Alpha-1D adrenergic receptor (Homo sapiens, UniProt P25100).
T2 sequence (P25100 whole entry): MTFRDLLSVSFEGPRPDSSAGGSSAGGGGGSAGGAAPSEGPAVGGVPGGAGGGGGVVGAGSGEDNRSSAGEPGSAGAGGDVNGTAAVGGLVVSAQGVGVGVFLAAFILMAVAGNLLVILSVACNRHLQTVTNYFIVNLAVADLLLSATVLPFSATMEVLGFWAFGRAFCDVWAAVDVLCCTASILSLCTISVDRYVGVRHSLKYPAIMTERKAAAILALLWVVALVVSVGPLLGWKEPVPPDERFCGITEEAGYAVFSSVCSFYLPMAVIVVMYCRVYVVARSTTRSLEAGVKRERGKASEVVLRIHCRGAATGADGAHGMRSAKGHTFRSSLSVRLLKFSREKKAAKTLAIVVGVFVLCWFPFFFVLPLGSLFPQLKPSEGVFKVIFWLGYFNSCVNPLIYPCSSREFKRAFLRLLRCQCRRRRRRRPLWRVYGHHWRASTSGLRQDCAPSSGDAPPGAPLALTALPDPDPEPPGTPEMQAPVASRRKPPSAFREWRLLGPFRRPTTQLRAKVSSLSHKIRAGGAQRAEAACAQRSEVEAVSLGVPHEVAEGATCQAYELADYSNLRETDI
Kind of test: Agonist activity at human cloned adrenergic Alpha-1D receptor expressed in CHO cells assessed as calcium mobilization by FLIPR. The test is classed as functional, cell-based. Background: Calcium flux is commonly read through the fluorescence of an indicator in the cells.

For test [3], the target named is T3, Alpha-1B adrenergic receptor (Homo sapiens, UniProt P35368).
T3 sequence (P35368 whole entry): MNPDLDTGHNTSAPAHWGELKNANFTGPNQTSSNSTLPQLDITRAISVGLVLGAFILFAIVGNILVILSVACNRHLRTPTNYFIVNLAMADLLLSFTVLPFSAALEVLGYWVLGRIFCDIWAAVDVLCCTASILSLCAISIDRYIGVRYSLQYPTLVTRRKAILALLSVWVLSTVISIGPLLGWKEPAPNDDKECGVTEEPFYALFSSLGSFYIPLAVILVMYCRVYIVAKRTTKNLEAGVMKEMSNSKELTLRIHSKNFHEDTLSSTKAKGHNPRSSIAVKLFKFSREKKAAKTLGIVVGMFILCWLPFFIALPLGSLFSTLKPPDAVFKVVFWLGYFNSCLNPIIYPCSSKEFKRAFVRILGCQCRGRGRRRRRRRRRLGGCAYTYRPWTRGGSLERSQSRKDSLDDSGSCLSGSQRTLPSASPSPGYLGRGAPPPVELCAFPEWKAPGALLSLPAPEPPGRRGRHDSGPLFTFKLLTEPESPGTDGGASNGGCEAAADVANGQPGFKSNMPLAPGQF
Kind of test: Agonist activity at human cloned adrenergic alpha-1B receptor expressed in CHO cells assessed as calcium mobilization by FLIPR. In kind it is functional, cell-based.

For test [4], the target named is T4, Alpha-2A adrenergic receptor (Homo sapiens, UniProt P08913).
T4 sequence (P08913 whole entry): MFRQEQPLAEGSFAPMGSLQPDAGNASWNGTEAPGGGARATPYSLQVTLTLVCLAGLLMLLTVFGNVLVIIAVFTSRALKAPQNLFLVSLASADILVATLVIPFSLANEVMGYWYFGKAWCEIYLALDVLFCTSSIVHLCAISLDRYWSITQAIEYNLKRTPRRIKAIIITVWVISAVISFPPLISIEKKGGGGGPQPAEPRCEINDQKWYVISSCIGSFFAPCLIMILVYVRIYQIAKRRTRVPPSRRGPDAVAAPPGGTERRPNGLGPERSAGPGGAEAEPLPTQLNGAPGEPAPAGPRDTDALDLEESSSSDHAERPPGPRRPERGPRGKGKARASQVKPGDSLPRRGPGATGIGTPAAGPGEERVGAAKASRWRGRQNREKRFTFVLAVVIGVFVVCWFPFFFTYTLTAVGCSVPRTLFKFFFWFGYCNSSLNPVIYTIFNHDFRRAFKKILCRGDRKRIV
Kind of test: Agonist activity at human cloned adrenergic alpha-2A receptor expressed in CHOK1 cells by beta-lactamase reporter gene assay. In kind it is functional, cell-based, CHO-K1. In general terms: In a reporter assay the amount or activity of a reporter protein is the signal.

Test [5] deals with T5, Alpha-1A adrenergic receptor (Homo sapiens, UniProt P35348).
T5 sequence (P35348 whole entry): T1 sequence (whole entry)
The test can be described thus: Agonist activity at human cloned adrenergic alpha-1A receptor expressed in CHO cells assessed as calcium mobilization by FLIPR. The test is classed as functional, cell-based.

Where only a bound is given, the exact number is not on record here.

The Emax is the size of the effect at its maximum, as opposed to the concentration needed. For orientation: EC50 means the concentration at which the effect is half-maximal. As to `Cc1c(OCC2=NCCN2)ccc(Cl)c1NS(C)(=O)=O` [DABUZALGRON], in test [1], the Emax is 60%. The EC50 in test [2], in test [3] and in test [4] was over 10 µM throughout.

For `CCS(=O)(=O)Nc1cccc(Cc2c[nH]cn2)c1`, the Emax in test [1] was 96%. Moreover, the concentration for a half-maximal effect (EC50) in test [2] is over 10 µM; in test [3], over 10 µM; in test [4], over 10 µM; in test [5], 0.009 µM.

For `Cc1ccc2c(c1NS(C)(=O)=O)CCC2c1ncc[nH]1` (configuration not stated), the Emax in test [1] amounted to 83%. The EC50 in test [2] was over 10 µM; in test [3], over 10 µM; in test [5], 0.033 µM.

`CS(=O)(=O)Nc1cccc2c1CCC2c1ncc[nH]1` (configuration not stated): the Emax in test [1] was determined as 87%. Also, the 50% effective concentration (EC50) in test [2] is over 10 µM; in test [3], over 10 µM; in test [4], over 10 µM; in test [5], 0.07 µM.

Turning to `c1ccc(-c2cccc3c2CCC3c2ncc[nH]2)nc1` (configuration not stated), the Emax in test [1] worked out at 53%. Further, the EC50 was over 10 µM in test [2], over 10 µM in test [3], over 10 µM in test [4] and 1.15 µM in test [5].

In the case of `CS(=O)(=O)Nc1cccc2c1CCCC2c1ncc[nH]1` (stereo in doubt; 17a) [listing 1 of 2 here], the EC50 in test [2] (cho) is over 10 µM; in test [3] (cho), over 10 µM; in test [4] (cho-k1) it was over 10 µM; in test [5], 0.142 µM.

Regarding `Cc1[nH]ncc1-c1cccc2c1CCC2c1ncc[nH]1` (configuration not stated), the EC50 was 0.634 µM in test [2], 0.902 µM in test [3], over 10 µM in test [4] and 0.003 µM in test [5].

For `CS(=O)(=O)Nc1cccc2c1CCCC2c1ncc[nH]1` (stereo in doubt; 17b) [listing 1 of 2 here], the EC50 was over 10 µM in test [2], over 10 µM in test [3], over 10 µM in test [4] and 2.15 µM in test [5].

Consider `CS(=O)(=O)Nc1cccc2c1CCCC2c1ncc[nH]1` (stereo in doubt; 17b) [listing 2 of 2 here], for which, in test [1], the Emax was 47%.

As for `CS(=O)(=O)Nc1cccc2c1CCCC2c1ncc[nH]1` (stereo in doubt; 17) [listing 1 of 2 here], in test [1], the maximum response (Emax) came out at 79%.

Turning to `Clc1ccc2c(c1-c1cn[nH]c1)CCC2c1ncc[nH]1` (configuration not stated), the EC50 in test [2] was over 10 µM; in test [3] it was over 10 µM; in test [4], over 10 µM; in test [5] it was 0.078 µM.

On to `c1cc(-c2cc[nH]n2)c2c(c1)C(c1ncc[nH]1)CC2` (configuration not stated), for which the EC50 in test [2] is 0.336 µM; in test [3] it was 0.6 µM; in test [4], over 10 µM; in test [5], 0.052 µM.

Take `CS(=O)(=O)Nc1cccc2c1CCCC2c1ncc[nH]1` (stereo in doubt; 17a) [listing 2 of 2 here]: the Emax in test [1] was determined as 79%.

In the case of `CCCS(=O)(=O)Nc1cccc2c1CCC2c1ncc[nH]1` (configuration not stated), the Emax in test [1] worked out at 54%. In addition, the EC50 in test [2] was over 10 µM; in test [3], over 10 µM; in test [5], 1.34 µM.

Turning to `Clc1ccc2c(c1-c1ccn[nH]1)CCC2c1ncc[nH]1` (configuration not stated), the Emax in test [1] was found to be 40%. Also, the EC50 in test [2] was over 10 µM; in test [3], over 10 µM; in test [4] it was over 10 µM; in test [5], 0.322 µM.

`Cn1ccc(-c2cccc3c2CCC3c2ncc[nH]2)n1` (configuration not stated): the Emax in test [1] was 19%. Further, the EC50 in test [2] is over 10 µM; in test [3], over 10 µM; in test [4], over 10 µM; in test [5] it was over 1.3 µM.

On to `c1ccc2c(c1)CCC2c1ncc[nH]1` (configuration not stated), for which, in test [1], the Emax was determined as 54%. In addition, the EC50 was over 10 µM in test [2], over 10 µM in test [3] and 0.473 µM in test [5].

Regarding `CS(=O)(=O)Nc1cccc2c1CCCC2c1ncc[nH]1` (stereo in doubt; 17) [listing 2 of 2 here], the concentration for a half-maximal effect (EC50) was over 10 µM in test [2] (cho), over 10 µM in test [3] (cho), over 10 µM in test [4] (cho-k1) and 0.234 µM in test [5].

`COc1c(Cl)ccc2c1CCC2c1ncc[nH]1` (configuration not stated): the Emax in test [1] is 24%. In addition, the results for the EC50 in test [2], in test [3] and in test [5] were over 10 µM, over 10 µM and 0.451 µM, respectively.
